Publication PMC3492248, “Src Kinase Regulation in Progressively Invasive Cancer” (PLoS ONE, 2012)
Like-named read-outs stand apart in the source and are kept apart here. Where a SMILES comes first, the peptide text is derived from it. [ ]: non-standard residue; d: D form. The star is where a group is joined. 5FAM = O=C1OC2(c3ccc(O)cc3Oc3cc(O)ccc32)c2ccc(C(=O)*)cc21; Orn = NCCC[C@H](N)C(=O)O

Assay: Stability of Src peptide substrate 1 in prostate cell lysates
Format: in vitro ADME, human
Settings: for % Remaining Parent / remaining at 1 h: M-PER lysis buffer, no ATP/Mg2+, 1 h; for remaining at 1 h: read-out: % Remaining Parent
Method: Peptides commonly suffer protease-catalyzed degradation in cells as well as in cell lysates. Consequently, prior to examining Src kinase-catalyzed phosphorylation of peptide 1 with lysates, we monitored the stability of the peptide as a function of time. Cells were lysed using Pierce’s M-PER mammalian lysis buffer and, in the absence of ATP and Mg^2+ (i.e. no observable kinase activity), the lysate was added to peptide 1. Only approximately 10% of the peptide is degraded after 1 h (Table S1). Since the phosphorylation rate is measured within 10 min of incubation (Fig. S1), the peptide is sufficiently stable for our needs.
Capillary electrophoresis was performed on a ProteomeLab PA800 system equipped with a laser-induced fluorescence (LIF) detector (Beckman Coulter). The LIF was excited using the 488 nm argon laser. A fused-silica capillary (30/20 cm total/effective length, 50/360 µm inner/outer diameter) was used for separation (Polymicro Technologies). Prior to installation, capillaries were pretreated with 0.1 M NaOH for 12 h, distilled water for 1 h, 0.1 M HCl for 6 h and water again for 12 h. The samples were hydrodynamically injected and separated at 25°C at a constant voltage of 12 kV. The running buffer was 100 mM Borate/100 mM SDS buffer at pH 7.7. Before each run, the capillary was rinsed with 0.1 M NaOH, distilled water, and then the running buffer for 2 min under 20 psi pressure. Data was collected and analyzed using 32 Karat Software (Version 8.0, Beckman Coulter).
All cell lines were acquired from ATCC and grown in a humidified incubator at 37°C with 5% CO2. PZ-HPV-7, RWPE1, WPE1-NA22, WPE1-NB14, WPE1-NB11 and WPE1-NB26 cell lines were cultured in Keratinocyte Serum Free Medium (K-SFM) supplied with 0.05 mg/mL bovine pituitary extract (BPE) and 5 ng/mL epidermal growth factor (EGF) (all provided as a kit from Invitrogen), and 1% penicillin/streptomycin (P/S; Invitrogen). CWR22Rv1 cells were cultured in RPMI-1640 medium (Invitrogen) supplemented with 10% heat-inactivated fetal bovine serum (HI-FBS, Invitrogen) and 1% P/S. DU145 cells were cultured in Eagle’s Minimum Essential Medium (EMEM, ATCC) supplemented with 10% HI-FBS and 1% P/S. PC3 cells were cultured in F-12K medium (ATCC) supplemented with 10% HI-FBS and 1% P/S. Cell lysates were prepared as follows: confluent cells were first trypsinized and collected into 15 mL tubes in the presence of FBS-containing buffer or medium and then washed (3X) with ice cold DPBS buffer. The cells were lysed using M-PER mammalian protein extraction reagent mixed with 5/100 (v/v) Halt protease and phosphatase inhibitor cocktail EDTA-free (Thermo Fisher Scientific) for 10 min at 4°C. Cell debris was removed by centrifuging samples at 14,000 x g for 10 min at 4°C. The total protein concentrations were determined using Dc Protein assay (Bio-Rad).
Cell Line % Remaining Parent

% Remaining Parent (DU145 cell lysate): 92.9 ± 0.5% | % Remaining Parent (PC3 cell lysate): 89.2 ± 2.2% | % Remaining Parent (WPE1-NA22 cell lysate): 92.4 ± 0.8% | % Remaining Parent (WPE1-NB14 cell lysate): 91.4 ± 1.2% | % Remaining Parent (WPE1-NB26 cell lysate): 91.0 ± 1.5% | metabolised at 1 h (human, prostate cell lysates, prostate cell lysate (M-PER mammalian lysis buffer), absence of ATP and Mg2+, after 1 h, read-out: peptide degraded): ~10% | remaining at 1 h (human, PZ-HPV-7 cell lysate): 92.4 ± 0.2% | remaining at 1 h (human, RWPE1 cell lysate): 91 ± 0.6% | remaining at 1 h (human, WPE1-NB11 cell lysate): 89.8 ± 1.5%
Compound: CC[C@H](C)[C@H](NC(=O)[C@H](CCC(=O)O)NC(=O)[C@H](CCC(=O)O)NC(=O)[C@H](CCC(=O)O)NC(=O)[C@H](CCCNC(C)=O)NC(=O)c1ccc2c(c1)C(=O)OC21c2ccc(O)cc2Oc2cc(O)ccc21)C(=O)N[C@@H](Cc1ccc(O)cc1)C(=O)NCC(=O)N[C@@H](CCC(=O)O)C(=O)N[C@@H](Cc1ccccc1)C(=O)N[C@@H](CCCNC(C)=O)C(N)=O [peptide 1] (5FAM-[Orn](Ac)EEEIYGEF[Orn](Ac)-NH2)
